Reference: patent publication US6552080B1, “Fungicidal compounds having a fluorovinyl-or fluoropropenyl-oxyphenyloxime moiety and process for the preparation thereof” (Korea Research Institute of Chemical Technology, priority 1999, dated 2003)
Read-outs that look alike come from different tables or passages of the source.

Assays:
[1] = test system: Pyricularia oryzae Carvara KA301; format: in vivo; settings: for RCV (Fungicidal Activities, C.V.): Rice Blast
Botrytis cinerae = assay: Fungicidal activity against Cucumber Gray Mold Rot (CGM) disease; format: in vivo; settings: for CGM (Fungicidal Activities, C.V.): Cucumber Gray Mold Rot, concentration 50 ppm
Phytophthora infestans = format: in vivo; settings: for TLB (Fungicidal Activities, C.V.): Tomato Late Blight, concentration 50 ppm
Puccinia recondita = assay: Fungicidal activity against Wheat Leaf Rust (WLR) disease; format: in vivo; settings: for WLR (Fungicidal Activities, C.V.): Wheat Leaf Rust
Erysiphae graminis = assay: Fungicidal activity against Barley Powdery Mildew (BPM) disease; format: in vivo; settings: for BPM (Fungicidal Activities, C.V.): Barley Powdery Mildew
Rhizoctonia solani AG-1 = assay: Fungicidal activity against Rice Sheath Blight (RSB) disease; settings: for RSB (Fungicidal Activities, C.V.): Rice Sheath Blight, concentration 50 ppm

Row | SMILES | RCV (Fungicidal Activities, C.V.) ([1]; concentration 2 ppm) | RCV (Fungicidal Activities, C.V.) ([1]; concentration 10 ppm) | RCV (Fungicidal Activities, C.V.) ([1]; concentration 50 ppm) | CGM (Fungicidal Activities, C.V.) (Botrytis cinerae) | TLB (Fungicidal Activities, C.V.) (Phytophthora infestans) | WLR (Fungicidal Activities, C.V.) (Puccinia recondita; concentration 2 ppm) | WLR (Fungicidal Activities, C.V.) (Puccinia recondita; concentration 10 ppm) | WLR (Fungicidal Activities, C.V.) (Puccinia recondita; concentration 50 ppm) | BPM (Fungicidal Activities, C.V.) (Erysiphae graminis; concentration 2 ppm) | BPM (Fungicidal Activities, C.V.) (Erysiphae graminis; concentration 10 ppm) | BPM (Fungicidal Activities, C.V.) (Erysiphae graminis; concentration 50 ppm) | RSB (Fungicidal Activities, C.V.) (Rhizoctonia solani AG-1) | Fungicidal Activities RCV (C.V.) ([1]; 2 ppm) | Fungicidal Activities WLR (C.V.) (Puccinia recondita; 2 ppm) | Fungicidal Activities BPM (C.V.) (Erysiphae graminis; 2 ppm) | also measured
1 | COC=C(C(=O)OC)c1ccccc1CON=C(C)c1cccc(OC(F)=C(c2cccc(OC)c2)C(F)(F)F)c1 [Compound 157] | 33% | 76% | 93% | 68% | 6% | 98% | 100% | 100% | 97% | 99% | 100% | 60% | – | – | – | –
2 | COC=C(C(=O)OC)c1ccccc1CON=C(C)c1cccc(OC(F)=C(c2ccc(OC)cc2)C(F)(F)F)c1 [Compound 158] | – | – | 41% | 44% | 0% | 91% | 98% | 100% | 98% | 100% | 100% | 70% | – | – | – | –
3 | COC=C(C(=O)OC)c1ccccc1CON=C(C)c1cccc(OC(F)=C(c2cccc(F)c2)C(F)(F)F)c1 [Compound 159] | 25% | 91% | 96% | 52% | 20% | 94% | 100% | 100% | 99% | 100% | 100% | 65% | – | – | – | –
4 | COC=C(C(=O)OC)c1ccccc1CON=C(C)c1cccc(OC(F)=C(c2ccc(F)cc2)C(F)(F)F)c1 [Compound 160] | – | 100% | 100% | 36% | 92% | – | 100% | 100% | – | 100% | 100% | 70% | 86% | 99% | 99% | –
5 | COC=C(C(=O)OC)c1ccccc1CON=C(C)c1cccc(OC(F)=C(c2ccc(Cl)cc2)C(F)(F)F)c1 [Compound 163] | – | – | – | – | – | – | – | – | – | – | – | – | 58% | 86% | 94% | Fungicidal Activities RCV (C.V.) ([1]; 10 ppm): 86%; Fungicidal Activities RCV (C.V.) ([1]; 50 ppm): 90%; Fungicidal Activities CGM (C.V.) (Botrytis cinerae; 50 ppm): 51%; Fungicidal Activities TLB (C.V.) (Phytophthora infestans; 50 ppm): 12%; Fungicidal Activities WLR (C.V.) (Puccinia recondita; 10 ppm): 98%; Fungicidal Activities WLR (C.V.) (Puccinia recondita; 50 ppm): 100%; Fungicidal Activities BPM (C.V.) (Erysiphae graminis; 10 ppm): 100%; Fungicidal Activities BPM (C.V.) (Erysiphae graminis; 50 ppm): 100%; Fungicidal Activities RSB (C.V.) (Rhizoctonia solani AG-1; 2 ppm): 40%; Fungicidal Activities RSB (C.V.) (Rhizoctonia solani AG-1; 10 ppm): 40%; Fungicidal Activities RSB (C.V.) (Rhizoctonia solani AG-1; 50 ppm): 92%
